Experimental data as given in ChEMBL document CHEMBL1201862, “PubChem BioAssay data set” (2004).
The source made the active and inactive calls.

Tests used:
Type in all cases: functional
[1] = molecular target: T1, Tyrosine-protein phosphatase non-receptor type 22 (Homo sapiens, UniProt Q9Y2R2);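 also: confirmatory dose-response retest of primary uHTS hits for inhibition of LYP phosphatase, measured by a fluorescence intensity read-out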
T1 sequence (Q9Y2R2 whole entry): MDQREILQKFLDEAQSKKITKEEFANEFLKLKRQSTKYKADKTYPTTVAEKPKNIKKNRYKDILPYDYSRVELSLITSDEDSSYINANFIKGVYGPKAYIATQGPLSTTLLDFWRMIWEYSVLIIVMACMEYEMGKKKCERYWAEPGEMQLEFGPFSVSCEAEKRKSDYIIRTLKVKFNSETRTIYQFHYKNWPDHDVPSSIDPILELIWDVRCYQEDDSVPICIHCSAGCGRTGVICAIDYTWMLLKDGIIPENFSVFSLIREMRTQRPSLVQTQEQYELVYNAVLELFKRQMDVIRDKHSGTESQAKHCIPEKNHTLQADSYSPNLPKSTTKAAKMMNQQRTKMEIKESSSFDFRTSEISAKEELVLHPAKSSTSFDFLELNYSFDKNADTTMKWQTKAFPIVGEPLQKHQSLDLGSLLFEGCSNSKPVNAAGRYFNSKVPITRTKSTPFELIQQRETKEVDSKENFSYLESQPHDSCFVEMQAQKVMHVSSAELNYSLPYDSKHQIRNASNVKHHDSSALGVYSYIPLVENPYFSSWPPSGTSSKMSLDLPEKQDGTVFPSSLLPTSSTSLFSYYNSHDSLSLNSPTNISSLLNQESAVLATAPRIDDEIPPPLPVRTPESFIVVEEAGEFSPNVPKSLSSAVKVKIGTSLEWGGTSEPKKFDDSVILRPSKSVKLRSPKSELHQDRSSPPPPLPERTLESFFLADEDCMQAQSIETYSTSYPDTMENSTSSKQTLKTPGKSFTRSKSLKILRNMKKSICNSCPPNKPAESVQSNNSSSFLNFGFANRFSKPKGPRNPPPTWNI

Phospholipase A2 = Phospholipase A2 (Homo sapiens, UniProt P04054);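 also: confirmatory dose-response counterscreen on phospholipase A2, testing hits that came from an ultra-high-throughput screen for ATG4B inhibitors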
Phospholipase A2, sequence (P04054 whole entry, canonical isoform): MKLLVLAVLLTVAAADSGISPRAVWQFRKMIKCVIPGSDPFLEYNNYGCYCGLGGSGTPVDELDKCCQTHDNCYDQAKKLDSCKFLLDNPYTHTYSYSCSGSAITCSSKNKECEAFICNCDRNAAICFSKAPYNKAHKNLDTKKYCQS

[2] = molecular target: Casein kinase I isoform delta (Homo sapiens, UniProt P48730);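 also: measured as one member (CSNK1D) of a kinome panel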
[3] = molecular target: Testis-specific serine/threonine-protein kinase 1 (Homo sapiens, UniProt Q9BXA7)
Testis-specific serine/threonine-protein kinase 1, sequence (Q9BXA7 whole entry): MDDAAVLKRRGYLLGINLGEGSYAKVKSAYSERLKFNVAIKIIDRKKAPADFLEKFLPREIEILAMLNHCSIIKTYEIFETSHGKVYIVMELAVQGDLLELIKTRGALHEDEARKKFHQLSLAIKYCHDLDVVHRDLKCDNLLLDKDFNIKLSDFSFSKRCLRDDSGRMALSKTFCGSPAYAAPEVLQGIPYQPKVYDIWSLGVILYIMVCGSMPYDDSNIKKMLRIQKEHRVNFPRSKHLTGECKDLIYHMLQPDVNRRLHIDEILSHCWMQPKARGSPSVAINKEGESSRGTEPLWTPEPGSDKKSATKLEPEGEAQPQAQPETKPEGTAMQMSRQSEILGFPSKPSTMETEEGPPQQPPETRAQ

[4] = molecular target: Mitogen-activated protein kinase 9 (Homo sapiens, UniProt P45984);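 also: value from a kinome panel profiling assay, MAPK9 panel entry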
Mitogen-activated protein kinase 9, sequence (P45984 whole entry): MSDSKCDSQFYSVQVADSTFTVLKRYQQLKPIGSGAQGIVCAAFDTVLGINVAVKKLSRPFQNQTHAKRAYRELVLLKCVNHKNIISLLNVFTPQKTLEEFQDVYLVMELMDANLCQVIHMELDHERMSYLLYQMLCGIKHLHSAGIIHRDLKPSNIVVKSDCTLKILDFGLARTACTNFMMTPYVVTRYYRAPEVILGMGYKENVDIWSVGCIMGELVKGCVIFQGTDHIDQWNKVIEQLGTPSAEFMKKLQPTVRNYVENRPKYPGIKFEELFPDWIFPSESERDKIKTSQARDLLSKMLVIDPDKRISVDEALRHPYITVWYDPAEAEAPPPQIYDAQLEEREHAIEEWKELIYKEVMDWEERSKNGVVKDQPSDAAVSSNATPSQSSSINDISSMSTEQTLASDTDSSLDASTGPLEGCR

[5] = molecular target: Cell division cycle 7-related protein kinase (Homo sapiens, UniProt O00311);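 also: value obtained from a kinome-wide kinase panel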
Cell division cycle 7-related protein kinase, sequence (O00311 whole entry): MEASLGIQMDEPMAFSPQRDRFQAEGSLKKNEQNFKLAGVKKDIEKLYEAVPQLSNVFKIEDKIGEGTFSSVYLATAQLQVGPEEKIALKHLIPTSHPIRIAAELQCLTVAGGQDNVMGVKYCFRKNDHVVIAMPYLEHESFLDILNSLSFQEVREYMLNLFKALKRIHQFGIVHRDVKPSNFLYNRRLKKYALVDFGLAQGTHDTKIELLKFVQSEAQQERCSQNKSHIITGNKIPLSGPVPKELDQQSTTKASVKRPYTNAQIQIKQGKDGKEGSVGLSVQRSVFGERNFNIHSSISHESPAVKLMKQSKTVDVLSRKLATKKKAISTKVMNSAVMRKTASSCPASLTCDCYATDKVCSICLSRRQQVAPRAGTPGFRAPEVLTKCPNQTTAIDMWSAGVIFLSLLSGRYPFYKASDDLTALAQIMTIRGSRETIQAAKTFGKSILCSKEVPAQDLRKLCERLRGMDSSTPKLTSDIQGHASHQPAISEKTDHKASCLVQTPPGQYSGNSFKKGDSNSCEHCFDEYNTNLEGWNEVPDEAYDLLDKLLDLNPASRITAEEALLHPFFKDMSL

Aurora kinase A = Aurora kinase A (Homo sapiens, UniProt O14965);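 also: value from the Navigating the Kinome kinase panel profiling, panel entry STK6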
Aurora kinase A, sequence (O14965 whole entry): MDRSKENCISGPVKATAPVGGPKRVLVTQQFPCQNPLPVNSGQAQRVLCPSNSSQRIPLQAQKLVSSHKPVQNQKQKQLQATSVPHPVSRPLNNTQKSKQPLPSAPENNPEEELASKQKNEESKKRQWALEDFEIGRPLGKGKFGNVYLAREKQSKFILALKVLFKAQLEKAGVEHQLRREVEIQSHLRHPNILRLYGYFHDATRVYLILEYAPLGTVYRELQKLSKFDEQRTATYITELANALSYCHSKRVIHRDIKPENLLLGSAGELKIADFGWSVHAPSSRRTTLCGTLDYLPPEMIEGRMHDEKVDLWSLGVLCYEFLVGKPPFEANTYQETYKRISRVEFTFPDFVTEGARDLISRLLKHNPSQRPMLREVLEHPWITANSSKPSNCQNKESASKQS

[6] = molecular target: Homeodomain-interacting protein kinase 4 (Homo sapiens, UniProt Q8NE63)
[7] = molecular target: MAP kinase-activated protein kinase 3 (Homo sapiens, UniProt Q16644);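 also: value comes from a kinome-wide profiling panel in which MAPKAPK3 is one of the panel members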
MAP kinase-activated protein kinase 3, sequence (Q16644 whole entry): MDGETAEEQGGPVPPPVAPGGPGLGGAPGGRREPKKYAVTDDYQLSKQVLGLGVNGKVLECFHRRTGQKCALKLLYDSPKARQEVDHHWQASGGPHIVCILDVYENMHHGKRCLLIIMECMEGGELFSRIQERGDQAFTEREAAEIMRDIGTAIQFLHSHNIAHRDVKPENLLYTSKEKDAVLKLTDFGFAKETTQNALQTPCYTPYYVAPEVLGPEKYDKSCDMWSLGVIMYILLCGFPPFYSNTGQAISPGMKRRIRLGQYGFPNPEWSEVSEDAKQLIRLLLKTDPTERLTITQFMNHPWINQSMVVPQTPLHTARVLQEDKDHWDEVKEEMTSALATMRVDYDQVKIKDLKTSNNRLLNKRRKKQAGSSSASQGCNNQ

[8] = molecular target: Serine/threonine-protein kinase D3 (Homo sapiens, UniProt O94806);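 also: determined within a kinase panel screen, with PRKCN as the panel member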
Serine/threonine-protein kinase D3, sequence (O94806 whole entry): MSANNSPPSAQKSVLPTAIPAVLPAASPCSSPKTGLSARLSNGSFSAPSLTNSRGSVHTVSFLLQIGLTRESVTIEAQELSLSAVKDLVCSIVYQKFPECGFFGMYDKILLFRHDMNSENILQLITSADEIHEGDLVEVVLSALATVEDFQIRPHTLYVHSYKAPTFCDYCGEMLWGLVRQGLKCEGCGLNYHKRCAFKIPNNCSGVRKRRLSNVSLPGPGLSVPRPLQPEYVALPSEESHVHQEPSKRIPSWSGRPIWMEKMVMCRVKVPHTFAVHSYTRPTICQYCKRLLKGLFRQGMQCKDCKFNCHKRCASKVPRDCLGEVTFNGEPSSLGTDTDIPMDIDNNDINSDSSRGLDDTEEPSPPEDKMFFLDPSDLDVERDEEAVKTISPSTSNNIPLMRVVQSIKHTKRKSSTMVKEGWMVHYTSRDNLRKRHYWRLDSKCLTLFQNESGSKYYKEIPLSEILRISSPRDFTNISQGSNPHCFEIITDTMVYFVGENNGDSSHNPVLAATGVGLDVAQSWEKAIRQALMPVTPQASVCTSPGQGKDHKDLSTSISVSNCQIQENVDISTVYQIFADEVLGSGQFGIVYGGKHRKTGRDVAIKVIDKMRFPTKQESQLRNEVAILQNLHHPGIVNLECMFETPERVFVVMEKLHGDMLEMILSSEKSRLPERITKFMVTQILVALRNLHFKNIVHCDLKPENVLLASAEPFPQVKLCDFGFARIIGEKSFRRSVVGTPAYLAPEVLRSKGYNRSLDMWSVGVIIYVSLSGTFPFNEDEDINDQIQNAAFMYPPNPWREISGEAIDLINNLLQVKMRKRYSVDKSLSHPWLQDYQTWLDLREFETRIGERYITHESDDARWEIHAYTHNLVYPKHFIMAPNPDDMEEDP

[9] = molecular target: Tyrosine-protein kinase JAK2 (Homo sapiens, UniProt O60674);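 also: JAK2 tested as one member of a kinase panel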
Tyrosine-protein kinase JAK2, sequence (O60674 whole entry): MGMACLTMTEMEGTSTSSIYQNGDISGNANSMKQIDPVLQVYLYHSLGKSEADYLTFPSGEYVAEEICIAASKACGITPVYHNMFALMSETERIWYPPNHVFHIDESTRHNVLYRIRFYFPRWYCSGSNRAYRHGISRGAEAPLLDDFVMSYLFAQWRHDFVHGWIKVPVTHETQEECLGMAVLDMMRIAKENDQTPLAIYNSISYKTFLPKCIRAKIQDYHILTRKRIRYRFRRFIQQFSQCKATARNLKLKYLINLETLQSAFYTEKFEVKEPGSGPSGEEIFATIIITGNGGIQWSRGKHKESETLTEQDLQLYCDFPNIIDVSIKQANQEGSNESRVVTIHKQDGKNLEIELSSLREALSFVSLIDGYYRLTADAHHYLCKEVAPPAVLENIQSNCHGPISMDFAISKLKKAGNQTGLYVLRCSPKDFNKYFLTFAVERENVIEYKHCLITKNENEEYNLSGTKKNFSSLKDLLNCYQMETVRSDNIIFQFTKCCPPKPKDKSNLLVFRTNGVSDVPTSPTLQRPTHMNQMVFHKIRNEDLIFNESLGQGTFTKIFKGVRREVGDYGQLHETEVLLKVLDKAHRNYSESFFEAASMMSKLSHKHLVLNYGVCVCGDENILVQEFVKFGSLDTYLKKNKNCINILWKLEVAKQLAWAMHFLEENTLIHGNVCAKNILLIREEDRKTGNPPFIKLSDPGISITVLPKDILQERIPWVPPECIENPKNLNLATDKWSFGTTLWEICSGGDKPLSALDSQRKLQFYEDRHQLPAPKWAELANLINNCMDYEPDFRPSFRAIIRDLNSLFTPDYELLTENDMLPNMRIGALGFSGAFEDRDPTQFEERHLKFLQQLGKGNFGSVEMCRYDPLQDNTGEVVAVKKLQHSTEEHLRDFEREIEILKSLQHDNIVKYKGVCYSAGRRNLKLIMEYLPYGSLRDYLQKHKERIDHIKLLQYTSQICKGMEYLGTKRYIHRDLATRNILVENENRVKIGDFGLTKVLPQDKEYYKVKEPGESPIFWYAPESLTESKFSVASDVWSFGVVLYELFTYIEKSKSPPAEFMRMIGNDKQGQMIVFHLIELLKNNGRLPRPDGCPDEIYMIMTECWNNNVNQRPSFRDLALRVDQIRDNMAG

[10] = molecular target: Proto-oncogene tyrosine-protein kinase Src (Homo sapiens, UniProt P12931);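 also: SRC entry within a kinome-wide kinase profiling panel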
Proto-oncogene tyrosine-protein kinase Src, sequence (P12931 2-536 limits assumed): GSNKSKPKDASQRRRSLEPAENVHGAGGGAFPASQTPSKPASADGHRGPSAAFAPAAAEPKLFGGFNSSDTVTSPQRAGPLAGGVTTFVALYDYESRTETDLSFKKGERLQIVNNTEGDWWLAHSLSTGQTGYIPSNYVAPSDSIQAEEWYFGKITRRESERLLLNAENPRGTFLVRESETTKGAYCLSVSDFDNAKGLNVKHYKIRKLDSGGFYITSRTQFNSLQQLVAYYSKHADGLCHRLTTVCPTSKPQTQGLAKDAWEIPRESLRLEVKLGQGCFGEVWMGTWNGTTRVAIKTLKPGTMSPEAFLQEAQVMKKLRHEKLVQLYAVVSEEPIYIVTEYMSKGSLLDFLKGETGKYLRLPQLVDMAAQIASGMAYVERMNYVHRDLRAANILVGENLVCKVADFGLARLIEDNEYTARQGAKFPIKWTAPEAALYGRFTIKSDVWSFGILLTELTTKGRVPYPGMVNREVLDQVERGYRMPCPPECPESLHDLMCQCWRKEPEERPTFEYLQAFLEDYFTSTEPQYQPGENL

Ki [2]	Ki [3]	Ki [4]	Ki [5]	Ki (Aurora kinase A)	Ki [6]	Ki [7]	Ki [8]	Ki [9]	Ki [10]	SMILES	IC50 [1]	IC50 (Phospholipase A2)
–	–	–	–	–	–	–	–	–	–	CCCc1nc2c(=O)n(C)c(=O)nc-2n(C)n1	1.6 µM (active)	> 80 µM (inactive)
> 7.94 µM (inactive)	0.2 µM (active)	> 3.98 µM (inactive)	> 1.26 µM (inactive)	> 3.98 µM (inactive)	> 7.94 µM (inactive)	> 10 µM (inactive)	> 10 µM (inactive)	1.26 µM (active)	5.01 µM (active)	COc1cc2ncn(-c3cc(OCc4ccccc4C(F)(F)F)c(C(N)=O)s3)c2cc1OC [GW843682X]	–	–
